# Results as given in patent EP2229940B1, “Pharmaceutical composition presenting anti-inflammatory and anti-histaminic properties” (Bioxtract S.A., priority 2009, dated 2010).
# What was measured:
# [1] = Solubility of curcumin and quercetin in phosphate buffer pH 6.8; format: physicochemical; conditions: 0.2 µm filter
# Procedure: Following the same protocol, the same amount of quercetin (150 mg) is solubilized in phosphate buffer pH 6.8. […] Solubilized quercetin: […] of the initial dose.
# [2] = 42 mg or 84 mg of oral curcumin; even under metabolised forms; cited from earlier work
Structure (SMILES),"Solubilized curcumin ([1]; 84 mg curcumin in 900 ml phosphate buffer pH 6.8, 1 hour at 37°C)",oral bioavailability of low dosages of curcumin [2],"Solubilized quercetin ([1]; 900 ml phosphate buffer pH 6.8, 1 h at 37°C)"
"COc1cc(C=CC(=O)CC(=O)C=Cc2ccc(O)c(OC)c2)ccc1O [curcumin, 1,7-bis(4-hydroxyl-3-methoxyphenyl)-1,6-heptadiene-3,5-dione]",0.004 % of the initial dose,not bioavailable at all,–
"O=c1c(O)c(-c2ccc(O)c(O)c2)oc2cc(O)cc(O)c12 [quercetin, Quercetin]",–,–,4 % of the initial dose
